According to patent US10590115B2, “Tetrahydroquinazoline derivatives useful as anticancer agents” (PFIZER INC., priority 2018, dated 2020):

Key:
[1] = biological target: T1, GDP-loaded kRas (1-169) G12C, C51S, C80L, C118S (Homo sapiens, UniProt P01116, C118S/C51S/C80L/G12C); assay: Mass Spectrometry Reactivity Assay (MSRA), covalent adduct with kRas G12C; type: binding; settings: 0.5 h at room temperature; 5 μM KRas protein; typical final concentration of the compounds 10 μM
T1 construct: GDP-loaded kRas (1-169) G12C, C51S, C80L, C118S
Method: Mass Spectrometry Reactivity Assay (MSRA)
Compounds presented in the present invention covalently bind to kRas G12C using MSRA to detect a covalent adduct of the exemplary compound and kRas G12C. GDP-loaded kRas (1-169) G12C, C51S, C80L, C118S were diluted in the protein assay buffer 25 mM Hepes pH7.5, 200 mM NaCl, 5% glycerol to concentration of 5 μM and 20 μl of protein was transferred into 96-well plate. […] See K-Ras(G12C) inhibitors allosterically control GTP affinity and effector interactions; Ostrem J M, Peters U, Sos M L, Wells J A, Shokat K M; Nature. 2013, Nov. 28; 503(7477):548-51.
Exemplary compounds dissolved in DMSO were diluted 100-fold into solution containing 20 μl of 5 μM KRas protein in the 96-well plate to initiate the reaction. Mosquito (TPP Lab tech) liquid handling robot was used to add compounds to protein solution. Typical final concentration of the compounds was 10 μM. The plates were placed on a shaker for 1 min at RT, sealed and incubated at room temperature for specified time period. 5 μl of reaction mix was added to 10 μl of 0.2% formic acid stop solution and mixed well. Typical end points were 30, 120, 600 and 1440 min.
Data were collected using Waters Acquity H-class UPLC system/Xevo G2-XS TOF mass spectrometer. The protein was injected in their liquid phase onto a Bruker Microtrap protein column TR1/15109/03. The following buffers were used to set LC gradient: Buffer A: 0.2% formic acid H20; B: 0.2% formic acid CAN. The protein was eluted from the column using the following LC Gradient: 0-0.4 min, 10% B to 30% B; 0.4 min-2.4 min, to 90% B, 2.5 min, 10% B, 3 min, 10% B. Initial data analysis was performed using MaxEnt software right after data acquisition.
The standard auto processing function was used to define percentage of unmodified and modified kRas protein using MexEnt software right after data acquisition. The highest peak was defined as 100% while smaller peak as assigned the number defined by autoprocessing function. The percent of modification corresponding to modified with exemplary compound and unmodified KRas GDP-loaded kRas (1-169) G12C, C51S, C80L, C118S were exported to Xcel data analysis software.
The percent of modified protein at the defined concentration of exemplary compound was calculated using the following formula: % mod=Num of modified peak/Sum of modified+unmodified.

[2] = biological target: T2, KRAS G12C in MiaPaCa2 cells (Homo sapiens, UniProt P01116, G12C); assay: MiaPaCa2 Cell Activity Assay (Raf-1 RBD capture of active Ras, MSD); type: cell-based; settings: MIAPaCa-2 cells, 6 hours treatment; assay limit is 30.0 μM
T2 construct: endogenous in cells; host or cells: MiaPaCa2
Method: MiaPaCa2 Cell Activity Assay
(§1) Compounds presented in the present invention lead to the accumulation of the GDP bound Ras upon treatment of human cancer cell line.
(§2) The accumulation of the GDP-bound KRAS G12C in cellular environment was measured based on the principle that KRAS G12C only binds to its downstream kinase; Raf-1 (MAP Kinase Kinase Kinase), when in its active-GTP bound state. In this state, Ras binded to a domain of Raf-1 kinase referred to as the Ras Binding Domain (RBD).
(§3) MiaPaCa2 cells were grown in DMEM medium (Gibco 11995) supplemented with 10% fetal bovine serum and 1% penicillin/streptomycin. Cells were seeded in 96-well tissue culture plates at a density of 40,000 cells/well and allowed to attach for 16-24 hours. Test compounds were prepared as a 10 mM stock in DMSO and serially diluted in 100% DMSO using a 3-fold dilution scheme. An intermediate 5× concentrated plate in complete growth medium was made and 25 μl/well was added to the 100 μl of cells for a final concentration of 0.1% DMSO. Each concentration of exemplary compound was tested in duplicate. The negative control wells were cells with control inhibitor at 10 μM, and the positive control wells were cells without drugs, DMSO only. Plates were incubated for 6 hours at 37° C., 5% CO2. Following treatment, cells were washed 3× with ice-cold PBS and 100 μl/well ice-cold 1× Assay/Lysis. Buffer with protease inhibitors was added (25 mM HEPES, pH 7.5, 150 mM NaCl, 1% NP-40, 10 mM MgCl2, 1 mM EDTA, 2% Glycerol). Following lysis samples were frozen at −80° C.
(§4) Raf-1 RBD (LJIC-1988A1) was diluted to 100 ng/well in PBS and 5 μl/well was spot coated onto MSD high bind SECTOR plates (L15XB). Plates were incubated at room temperature for 1 hour on an orbital shaker. Plates were washed with PBS/0.05% Tween-20 and 50 μl/well of thawed lysate samples were added, followed by 50 μl of 1% MSD Blocker A in PBS/0.05% Tween-20 (R93BA). Plates were incubated for 1 hour on an orbital shaker and washed with PBS/0.05% Tween-20. 25 μl/well of Anti-pan-Ras Antibody (Cell Biolabs 244003) diluted 1:3000 was added in 1% MSD Blocker A solution and plates were incubated for 1 hour on an orbital shaker and washed with PBS/0.05% Tween-20. SULFO-TAG goat anti-mouse secondary antibody (MSD R32AC) was diluted 1:500 in MSD Blocker A solution and added at 25 μL/well. Plates were incubated for 1 hour on an orbital shaker and washed with PBS/0.05% Tween-20. 150 μl/well of Read Buffer T (MSD R92TC) diluted 1:3 in H2O was added and plates were read on a Meso Scale Discovery Sector Imager S600.
(§5) KRAS signal was normalized to maximum inhibition and DMSO control values, and IC50 values were generated using a 4 parameter fit of the dose response curve. The decrease in IC50 reflects that the exemplary compound lead to a higher level of accumulation of GDP-bound KRAS G12C than another exemplary compounds at specific timepoint of treatment of cancer cell line.

KRAS G12C in H358 cells = biological target: T3, KRAS G12C in H358 cells (Homo sapiens, UniProt P01116, G12C); assay: H358 Cell Activity Assay (Raf-1 RBD capture of active Ras, MSD); type: cell-based; settings: 6 hours treatment
T3 construct: endogenous in cells; host or cells: H358
Method: as §1, §2
as §3, with “H358” for “MiaPaCa2”, “RPMI 1640” for “DMEM”, “11875)” for “11995)”
as §4, §5

| Compound | % Modification (0.5 h) [1] | IC50 [2] | IC50 (KRAS G12C in H358 cells) |
| --- | --- | --- | --- |
| C=CC(=O)N1CCN(c2nc(OCCCN(C)C)nc3c2C[C@@H](C)[C@H](c2c(Cl)c(C)cc4[nH]ncc24)C3)CC1 (relative stereo) [Example C7, 1-(4-{(6R,7R)-rel-7-(5-chloro-6-methyl-1H-indazol-4-yl)-2-[3-(dimethylamino)propoxy]-6-methyl-5,6,7,8-tetrahydroquinazolin-4-yl}piperazin-1-yl)prop-2-en-1-one] | 73% | 0.088 µM | 0.106 µM |
| C=CC(=O)N1CCN(c2nc(OCCN(C)C)nc3c2C[C@@H](C)[C@H](c2c(Cl)c(C)cc4[nH]ncc24)C3)CC1 (relative stereo) [Example C8, 1-(4-{(6R,7R)-rel-7-(5-chloro-6-methyl-1H-indazol-4-yl)-2-[2-(dimethylamino)ethoxy]-6-methyl-5,6,7,8-tetrahydroquinazolin-4-yl}piperazin-1-yl)prop-2-en-1-one] | 65% | 0.14 µM | 0.116 µM |
| C=CC(=O)N1CCN(c2nc(OC[C@H]3CCCN3C)nc3c2C[C@@H](C)[C@H](c2c(C)ccc4[nH]ncc24)C3)CC1 (relative stereo) [Example C10, 1-{4-[(6R,7R)-rel-6-methyl-7-(5-methyl-1H-indazol-4-yl)-2-{[(2R)-1-methylpyrrolidin-2-yl]methoxy}-5,6,7,8-tetrahydroquinazolin-4-yl]piperazin-1-yl}prop-2-en-1-one] | 80% | 0.236 µM | 0.129 µM |
| C=CC(=O)N1CCN(c2nc(N3CC(N(C)C)C3)nc3c2C[C@@H](C)[C@H](c2c(C)ccc4[nH]ncc24)C3)CC1 (relative stereo) [Example F1, 1-{4-[(6R,7R)-rel-2-[3-(dimethylamino)azetidin-1-yl]-6-methyl-7-(5-methyl-1H-indazol-4-yl)-5,6,7,8-tetrahydroquinazolin-4-yl]piperazin-1-yl}prop-2-en-1-one] | 59% | 0.429 µM | 0.36 µM |
| C=CC(=O)N1CCN(c2nc(N3CC(N(C)C)C3)nc3c2C[C@@H](C)[C@H](c2c(Cl)ccc4[nH]ncc24)C3)CC1 (single isomer, unassigned) [Example F10] | – | 0.169 µM | 0.395 µM |
| C=CC(=O)N1CC2(C1)CN(c1ncnc3c1CCC(c1c(C)ccc4[nH]ncc14)C3)C2 (stereo not shown) [Example B1, 1-{6-[7-(5-methyl-1H-indazol-4-yl)-5,6,7,8-tetrahydroquinazolin-4-yl]-2,6-diazaspiro[3.3]hept-2-yl}prop-2-en-1-one] | 9% | 18.7 µM | – |
| C=CC(=O)N1CCN(c2ncnc3c2CCC(c2c(C)ccc4[nH]ncc24)C3)CC1C (stereo not shown) [Example B3, 1-{2-methyl-4-[7-(5-methyl-1H-indazol-4-yl)-5,6,7,8-tetrahydroquinazolin-4-yl]piperazin-1-yl}prop-2-en-1-one] | 7% | 28.4 µM | – |
| C=CC(=O)N1CCN(c2nc(OCCOC)nc3c2CCC(c2c(C)ccc4[nH]ncc24)C3)CC1 (stereo not shown) [Example C1, 1-{4-[2-(2-methoxyethoxy)-7-(5-methyl-1H-indazol-4-yl)-5,6,7,8-tetrahydroquinazolin-4-yl]piperazin-1-yl}prop-2-en-1-one] | 19% | 9.84 µM | – |
| C=CC(=O)N1CCN(c2nc(OCCO)nc3c2CCC(c2c(C)ccc4[nH]ncc24)C3)CC1 (stereo not shown) [Example C3, 1-{4-[2-(2-hydroxyethoxy)-7-(5-methyl-1H-indazol-4-yl)-5,6,7,8-tetrahydroquinazolin-4-yl]piperazin-1-yl}prop-2-en-1-one] | 15% | 12 µM | – |
| C=CC(=O)N1CCN(c2nc(OCCCO)nc3c2CCC(c2c(C)ccc4[nH]ncc24)C3)CC1 (stereo not shown) [Example C4, 1-{4-[2-(3-hydroxpropoxy)-7-(5-methyl-1H-indazol-4-yl)-5,6,7,8-tetrahydroquinazolin-4-yl]piperazin-1-yl}prop-2-en-1-one] | 34% | 3.61 µM | – |
| C=CC(=O)N1CCN(c2nc(N3CC(N(C)C)C3)nc3c2C[C@H](C)[C@@H](c2c(Cl)c(C)cc4[nH]ncc24)C3)CC1 [Example F8, 1-(4-{(6S,7S)-7-(5-chloro-6-methyl-1H-indazol-4-yl)-2-[3-(dimethylamino)azetidin-1-yl]-6-methyl-5,6,7,8-tetrahydroquinazolin-4-yl}piperazin-1-yl)prop-2-en-1-one] | 12% | 22.9 µM | – |
| C=CC(=O)N1CCN(c2nc(N3CC(N(C)C)C3)nc3c2C[C@@H](C)[C@H](c2c(C)c(Cl)cc4[nH]ncc24)C3)C[C@H]1C [Example F13, 1-[(2R)-4-{(6R,7R)-7-(6-chloro-5-methyl-1H-indazol-4-yl)-2-[3-(dimethylamino)azetidin-1-yl]-6-methyl-5,6,7,8-tetrahydroquinazolin-4-yl}-2-methylpiperazin-1-yl]prop-2-en-1-one] | 79% | 0.113 µM | – |
